Values quoted from earlier work in patent US7422607B2, “Anti-calcification treatments for heart valves and vascular grafts” (priority 2004, dated 2008).

Conditions: buffer system described by Giradot (U.S. Pat. No. 4,976,733)

CCCCCCCC/C=C\CCCCCCC(N)C(=O)O (stereo not drawn) [alpha amino oleic acid]
Solubility in the buffer system: extremely low solubility
